Where no end group is shown, it is not given here.
Key:
[1] = system: Gram-positive bacteria; conditions: geometric mean of MBCs, 7 Gram-positive strains (Table 2)
[2] = system: E. coli ATCC 25922; assay: Cytoplasmic membrane depolarization (DiSC3-5); assay type: cell-based, Escherichia coli; conditions: DiSC3-5 release, at all concentrations
Protocol: Mid-log phase E. coli ATCC 25922 cells (OD600 = 0.05) were incubated with 0.4 μM DiSC3-5 and 100 mM K ^+ in 5 mM HEPES buffer (pH 7.4, containing 20 mM glucose) until a steady decrease in fluorescence was achieved. The background fluorescence (excitation λ = 622 nm, emission λ = 670 nm) was recorded with an F-4500 fluorescence spectrophotometer (Hitachi, Japan). Subsequently, 2 mL of the cell suspension was added to a 1-cm quartz cuvette and mixed with various concentrations of peptide. The change in fluorescence in C-1, C-2, and C-3 was recorded from 0 to 1,000, 2,000, and 2,500 s, respectively.

Substance | GM MBC [1] [µM] | time to cytoplasmic membrane depolarization / highest fluorescence intensity [2] [s]
RLRLRLRLL-NH2 [L5] | 11.89 | 
RWRWRWRWW-NH2 [W5] |  | ≤ 300

From PMC7725003, “Systematically Studying the Optimal Amino Acid Distribution Patterns of the Amphiphilic Structure by Using the Ultrashort Amphiphiles” (Frontiers in Microbiology, 2020)
